Data published in patent publication US9604982B2, “P2X7 modulators” (Janssen Pharmaceutica NV, priority 2013, dated 2017).

Target: P2X7 (Homo sapiens (Human), UniProt Q99572)
Assay: Radioligand binding, human P2X7-1321N1 cell membranes, tracer tritiated A-804598
Conditions: Table 3 (additional runs)
Method: P2X7 Antagonism in Recombinant Human P2X7 Cells or Recombinant Rat P2X7 Cells: (a) Ca^2+ Flux and (b) Radioligand Binding
On the day of the experiment, cell membrane preparations were made according to standard published methods. […] The compound can be prepared as described in the literature. […] The assay was terminated by filtration (GF/B filters pre-soaked with 0.3% PEI) and washed with washing buffer (Tris-HCl 50 mM). The IC50 generated in the binding assay was corrected for tracer concentration and affinity of the tracer to derive at the affinity (K) of the test compounds. […] Data are analyzed and graphed on Graphpad Prism 5.

Sequence of P2X7 (Q99572 whole entry): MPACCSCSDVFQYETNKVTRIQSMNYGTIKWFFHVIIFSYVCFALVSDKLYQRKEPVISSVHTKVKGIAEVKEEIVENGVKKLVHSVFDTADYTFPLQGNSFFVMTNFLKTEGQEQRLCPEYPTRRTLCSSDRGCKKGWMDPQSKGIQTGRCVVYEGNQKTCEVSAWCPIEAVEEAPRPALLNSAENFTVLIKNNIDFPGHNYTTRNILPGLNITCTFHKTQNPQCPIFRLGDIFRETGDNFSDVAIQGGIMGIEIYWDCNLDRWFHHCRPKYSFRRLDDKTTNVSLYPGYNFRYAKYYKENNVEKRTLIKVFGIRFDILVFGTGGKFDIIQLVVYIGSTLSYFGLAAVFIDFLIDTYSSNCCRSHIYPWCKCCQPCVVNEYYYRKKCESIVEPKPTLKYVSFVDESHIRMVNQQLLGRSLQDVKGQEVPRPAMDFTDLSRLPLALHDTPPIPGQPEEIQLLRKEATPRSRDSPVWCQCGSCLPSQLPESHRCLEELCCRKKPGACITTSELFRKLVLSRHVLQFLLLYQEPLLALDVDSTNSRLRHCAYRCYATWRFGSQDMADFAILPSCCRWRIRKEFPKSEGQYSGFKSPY

Question: For `Cc1nc2c(c(-c3ccn[nH]3)n1)C[C@H](C)N(C(=O)c1ccc(Cl)cc1F)C2` (single isomer, unassigned) [Example 89, (S*)-(4-chloro-2-fluorophenyl)(2,6-dimethyl-4-(1H-pyrazol-5-yl)-5,6-dihydropyrido[3,4-d]pyrimidin-7(8H)-yl)methanone], which Ki is on record?
Answer: Its Ki is 7.7 nM.
